Each block holds one molecule with its values, some of them ahead of it.
What was measured:
[1] = tested on: Sulindac reductase activity in calf liver; test: Sulindac reductase activity in calf liver fractions; format: biochemical, bovine; details: mitochondria, S-100 and S-100 pellet of liver; preliminary evidence
Protocol: Mammalian enzymes. […] To prepare mitochondria, the S10 pellets were suspended in 20 ml buffer A. […] The tubes were centrifuged at 24,000×g for 24 min. The pellets were resuspended in buffer A and centrifuged at 20,000×g for 15 min. The pellets (containing mitochondria) were suspended in 2 ml of buffer A. All fractions were stored at -80° C.

Normal Lung cells [2] = test: Viability of normal lung cells exposed to TBHP (MTS assay); format: cell-based; details: 500 μM for 48 hr, then TBHP 2 hr
Protocol: Normal lung cells were treated with 500 μM sulindac-(R+S; near 50% each), 500 μM sulindac-R (>99% R; <1% S) or 500 μM sulindac-S (>99% S; <1% R) for 48 hr. The sulindac-R and sulindac-S samples were obtained from a racemic mixture of epimers using a chiral column analogous to the process described above. The cells were washed and then exposed to the indicated concentration of tert-Butyl Hydroperoxide (TBHP) for 2 hr. Cell viability was measured using the standard MTS assay. A background absorbance of 0.12 was subtracted from average of four replicate samples. The data are plotted as a bar graph because the concentrations are not in equal intervals. The error bars are the SEM of four replicate samples. The data are presented on three separate graphs using the untreated samples from that plate.

[3] = tested on: Membrane Msr (mem-R,S-Msr); test: Extraction reductase assay, sulindac as substrate; format: biochemical, E. coli; details: for Nmoles formed: 35 μg of membrane fraction
rat hearts = test: Ischemia/reperfusion in Langendorff heart, LDH release; format: in vivo, rats; details: 0.1 mg in diet for 2 days; ischemia 45 minutes, reperfusion 2 hours
Protocol: […]. […] The hearts were removed, exposed to ischemia for 45 minutes and then perfused for 2 hours (reperfusion) using a Langendorff procedure. The cellular damage was measured by assaying for the release of lactic dehydrogenase (LDH).

Normal Lung cells [4] = test: Conversion of sulindac epimers to the sulfide in cells; format: in vitro ADME; details: 200 μM epimer, 4 hours, serum-free medium
Protocol: (§1) After incubation, the cells are collected, rinsed and lysed with acetonitrile. The cytosolic contents are separated on a C-18 column.

Normal Cardiomyocyte = test: as above; format: in vitro ADME; details: 200 μM epimer, 4 hours, serum-free medium
Protocol: as §1

HeLa cells = test: as above; format: in vitro ADME; details: 200 μM epimer, 4 hours, serum-free medium
Protocol: as §1

[5] = tested on: Cancer Skin (skin SCC) cells; test: as above; format: in vitro ADME; details: 200 μM epimer, 4 hours, serum-free medium
Protocol: as §1

Cancer Lung cells = test: as above; format: in vitro ADME; details: 200 μM epimer, 4 hours, serum-free medium
Protocol: as §1

MsrB [6] = target: T1, MsrB (Escherichia coli, UniProt P0A746); test: Reductase assay with TLC of products; details: 100 nmoles substrate, 21 μg MsrB, 15 mM DTT, 2 hours 37° C.
T1 sequence (P0A746 whole entry): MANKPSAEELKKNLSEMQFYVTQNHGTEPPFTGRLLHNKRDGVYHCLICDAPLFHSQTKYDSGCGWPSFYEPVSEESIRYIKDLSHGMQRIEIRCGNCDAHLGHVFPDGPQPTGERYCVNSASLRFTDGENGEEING
Protocol: (§2) Reductase assay and thin layer chromatography (TLC). […] Incubation was carried out for 2 hours at 37° C., at the end of which the duplicate samples were combined and dried in a speed-vacuum unit at room temperature. The residue was suspended in 50 μl of ethanol, which was then loaded onto a silica gel TLC plate. The plate was developed with butanol: acetic acid:water (60:15:25) as the solvent. The compounds were visualized by their yellow color.

MsrA [7] = target: T2, MsrA (Escherichia coli, UniProt P0A744); test: Reductase assay with TLC of products; details: 100 nmoles substrate, 3 μg MsrA, 15 mM DTT, 2 hours 37° C.
T2 sequence (P0A744 whole entry): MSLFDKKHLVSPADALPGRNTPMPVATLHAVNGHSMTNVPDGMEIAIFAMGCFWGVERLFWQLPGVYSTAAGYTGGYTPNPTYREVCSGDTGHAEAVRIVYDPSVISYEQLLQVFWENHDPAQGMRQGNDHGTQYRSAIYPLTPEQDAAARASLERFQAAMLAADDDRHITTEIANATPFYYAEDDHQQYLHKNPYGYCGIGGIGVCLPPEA
Protocol: as §2

MsrB [8] = target: T1, MsrB; test: Extraction reductase assay, sulindac as substrate; details: 10 μg MsrB
Source text: (§3) Bacterial enzymes. […] The enzyme preparations had specific activities similar those reported earlier.

MsrA [9] = target: T2, MsrA; test: Extraction reductase assay, sulindac as substrate; details: 250 ng MsrA
Source text: as §3

Drosophila = test: Survival of flies exposed to paraquat oxidative stress; format: in vivo; details: for Flies alive: 2.5 mM paraquat, 2 mM sulindac; for Survival rate: 10 mM paraquat
Protocol: Paraquat is a cytotoxic compound known to form superoxide radicals intracellularly. Three different concentrations of paraquat (i.e., 2.5 mM, 5 mM and 10 mM) were tested. […] After 3 days at 25° C., flies were transferred to test vials for counting.

PC-12 cells = test: Viability of PC-12 cells treated with MPP+ (trypan blue exclusion); format: cell-based; details: for Dead cells (%) Exp 1 / Dead cells (%) Exp 2: 0.2 mM MPP+ 24 h
MsrA from E. coli = MsrA from E. coli (Escherichia coli, UniProt P0A744); test: Reductase assay (NADPH oxidation): reduction of sulindac to sulindac sulfide by MsrA
Chain of MsrA from E. coli (P0A744 whole entry): as above
Protocol: Reductase assay. […] Incubations were performed at 37° C. for various times.
At the end of incubation, 500 μl of 0.5 M Bis-Tris-Cl pH 5.5 and 3 ml of ethyl acetate were added. The tubes were mixed (vortexed) for 5 seconds (3 times). After separation, the organic phase was removed and another 3 ml of ethyl acetate were added. After mixing the organic phase was again removed.

G93A transgenic mice = test: G93A SOD1 transgenic mouse model of familial ALS; format: in vivo
Protocol: Transgenic mice expressing a mutant form of SOD similar to that found in human ALS patients were used for this study. Transgenic male mice with a G93A human SOD1 (G1H/+) mutation (B6SJL-TgN (SOD1-G93A)1 Gur; Jackson Laboratories, ME) were used to breed with female B6SJL mice (Jackson Laboratories, ME). The F1 generations were genotyped for the G93A mutation with polymerase chain reaction (PCR) using tail DNA, and two specific primers from the SOD1 gene.
Motor performance was assessed by Rotarod testing for each group and survival time was recorded.
Motor function testing. Mice were trained for 2-3 days to become acquainted with the Rotarod apparatus (Columbus instruments, Columbus, Ohio). Rotarod performances were assessed in G93A mice starting at 60 days of age. The testing began with placing the mice on a rod that rotates at 12 rpms. The time period that the mice stayed on the rod before falling off was recorded as a measurement of the competence of their motor function. Three trials were performed, and the best result of the three trials was recorded representing the status of the motor performance. Mice were tested twice a week until they could no longer perform the task.
Survival times. The initial sign of disease in G93A transgenic mice is a resting tremor that progresses to gait impairment, asymmetrical or symmetrical paralysis of the hind limbs, and ultimately complete paralysis at the end stage. Mice were sacrificed when they were unable to roll over within 20 seconds after being pushed on their side. This time point was determined to be the time of survival, at which time the mice were sacrificed.
Light microscopic immunocytochemistry. Mice were perfused transcardially with cold 0.1M phosphate-buffered saline (PBS) for 1 minute followed by cold 4% paraformaldehyde in PBS for 10 minutes. The spinal cords were removed rapidly, blocked coronally, and post-fixed in 4% paraformaldehyde in PBS for 6 hours. Blocks were cryo-protected in 30% sucrose for 24 hours and were sectioned on a cryostat at a thickness of 35 micrometers. All protocols were conducted within NIH guidelines for animal research and were approved by the Institutional Animal Care and Use Committee (IACUC).
Serial transverse sections (50 μm thick) were cut on a cryostat and collected for Nissl staining. Every fourth section was analyzed for neuronal volume and number using the optical fractionator and nucleator probes of the Stereo Investigator System (Microbrightfield, Colchester, Vt.). Six tissue sections of the lumbar spinal cord from each mouse were analyzed. All cells were counted from within the ventral horn below a horizontal line across the gray matter through the ventral border of the central canal. Photomicrographs were taken on a Zeiss Axiophot II microscope.
Statistical analysis. Statistical analysis of survival was performed using Kaplan-Meier test for survival measured in postnatal days, Fisher's Test for mean age of death analysis, and Scheffe test for motor performance.

fSMsr = test: Extraction reductase assay, sulindac as substrate; details: 200 μg fSMsr
Source text: as §3

MsrA1 = test: Extraction reductase assay, sulindac as substrate; details: 40 μg MsrA1
Source text: as §3

fRMsr = fRMsr (Escherichia coli, UniProt P76270); test: Extraction reductase assay, sulindac as substrate; details: 290 μg fRMsr
Chain of fRMsr (P76270 whole entry): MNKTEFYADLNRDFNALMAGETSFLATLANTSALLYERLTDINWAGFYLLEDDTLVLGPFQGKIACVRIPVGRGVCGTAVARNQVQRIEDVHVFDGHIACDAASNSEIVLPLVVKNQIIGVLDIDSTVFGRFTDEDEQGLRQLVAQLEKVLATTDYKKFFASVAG
Source text: as §3

[10] = 0.1 mM sulindac 48 h pretreatment
[11] = 0.2 mM sulindac 48 h pretreatment
[12] = 0.5 mM sulindac 48 h pretreatment
[13] = 0.5 mM sulindac pretreatment, 0.2 mM MPP+
[14] = Tube 2: no MsrA, sulindac 5 μl (0.2M), thioredoxin 3 μl
[15] = Tube 3: MsrA 1 μl (100 ng/μl), 20 min
[16] = Tube 4: MsrA 2 μl (100 ng/μl), 20 min
[17] = Tube 5: MsrA 4 μl (100 ng/μl), 20 min
[18] = Tube 7: MsrA 2 μl (100 ng/μl), 10 min
[19] = Tube 8: MsrA 2 μl (100 ng/μl), 30 min

Effect of added excess Met(O) epimer on sulindac reductase activity [1]: only a slight effect
SMILES: C[S@@+]([O-])CC[C@H](N)C(=O)O [Met-R—(O)]

SMILES: C[S+]([O-])CC[C@H](N)C(=O)O (stereo partly shown) [Met-S—(O)]
Effect of added excess Met(O) epimer on sulindac reductase activity [1]: inhibited the activity in all three fractions

Nmoles formed [3]: 2.41 nmol
SMILES: CC1=C(CC(=O)O)c2cc(F)ccc2/C1=C\c1ccc([S@@+](C)[O-])cc1 [R-epimer, R-sulindac sulfoxide]
Protection against TBHP compared with other forms (Normal Lung cells [2]): protects better as compared to sulindac-(R+S) or Sulindac-S | TBHP concentration up to which protection is seen (Normal Lung cells [2]): 340 µM | Protection of hearts from ischemia/reperfusion damage (LDH release) (rat hearts): protects their hearts from oxidative damage

SMILES: CC1=C(CC(=O)O)c2cc(F)ccc2/C1=C\c1ccc([S@+](C)[O-])cc1 [S-epimer, S-sulindac sulfoxide]
Amount formed (picomoles) (Normal Lung cells [4]): 35 picomoles | Amount formed (picomoles) (Normal Cardiomyocyte): 120.9 picomoles | Amount formed (picomoles) (HeLa cells): 7.9 picomoles | Amount formed (picomoles) [5]: 57 picomoles | Amount formed (picomoles) (Cancer Lung cells): 17.7 picomoles | TBHP concentration at which error bars begin to overlap (Normal Lung cells [2]): ~220 µM | TBHP concentration up to which protection is seen (Normal Lung cells [2]): ~180 µM

SMILES: CSCCC(NC(=O)CC1=C(C)/C(=C/c2ccc([S+](C)[O-])cc2)c2ccc(F)cc21)C(=O)O (stereo not shown) [SMO]
Substrate for MsrB (reduction products on TLC) (MsrB [6]): substrate for MsrB | Substrate for MsrA (reduction products on TLC) (MsrA [7]): substrate for MsrA

SMILES: CC1=C(CC(=O)O)c2cc(F)ccc2/C1=C\c1ccc([S+](C)[O-])cc1 (stereo not shown) [Sulindac]
Units of activity (MsrB [8]): 0 nmoles of SS formed per hour | Units of activity (MsrA [9]): 11.3 nmoles of SS formed per hour | Flies alive (Drosophila; 3 day): approximately 95% | Flies alive (Drosophila; 6 day): ~60% | Survival rate (Drosophila; after 2 days): ~85% | Survival rate (Drosophila; after 3 days): ~57% | TBHP concentration after which protection declined rapidly (Normal Lung cells [2]): 80 to 100 µM | Dead cells (%) Exp 1 (PC-12 cells; [10]): 67% | Dead cells (%) Exp 2 (PC-12 cells; [10]): 74% | Dead cells (%) Exp 1 (PC-12 cells; [11]): 55% | Dead cells (%) Exp 2 (PC-12 cells; [11]): 39% | Dead cells (%) Exp 1 (PC-12 cells; [12]): 34% | Dead cells (%) Exp 2 (PC-12 cells; [12]): 35% | Cell death (PC-12 cells; [13]): approximately 35% | Cell survival (PC-12 cells; [13]): ~65% | Effect on viability of the cells (PC-12 cells; in the absence of MPP+): no effect on the viability of the cells | Substrate for MsrB (reduction products on TLC) (MsrB [6]): not a substrate for MsrB | Nmoles formed [3]: 2.75 nmol | Units of activity ([3]; 50 μg membrane fraction): 5.1 nmoles of SS formed per hour | OD340 (MsrA from E. coli; [14]): 0.660 | Sulindac sulfide (MsrA from E. coli; [14]): 0 nmol | OD340 (MsrA from E. coli; [15]): 0.622 | Sulindac sulfide (MsrA from E. coli; [15]): 5.8 nmol | Δ OD340 (MsrA from E. coli; [15]): 0.038 | OD340 (MsrA from E. coli; [16]): 0.586 | Sulindac sulfide (MsrA from E. coli; [16]): 11.2 nmol | Δ OD340 (MsrA from E. coli; [16]): 0.074 | OD340 (MsrA from E. coli; [17]): 0.522 | Sulindac sulfide (MsrA from E. coli; [17]): 21.0 nmol | Δ OD340 (MsrA from E. coli; [17]): 0.138 | OD340 (MsrA from E. coli; Tube 6: MsrA 2 μl, no thioredoxin, 20 min): 0.684 | OD340 (MsrA from E. coli; [18]): 0.626 | Sulindac sulfide (MsrA from E. coli; [18]): 5.2 nmol | Δ OD340 (MsrA from E. coli; [18]): 0.034 | OD340 (MsrA from E. coli; [19]): 0.531 | Sulindac sulfide (MsrA from E. coli; [19]): 19.4 nmol | Δ OD340 (MsrA from E. coli; [19]): 0.129 | Motor performance (Rotarod performance times) (G93A transgenic mice; 300 PPM and 450 PPM groups vs G93A controls): significant improvement in motor performance | Mean survival time (G93A transgenic mice; 300 PPM in food from postnatal day 30): 135.17 ± 11.4 days | Increase in survival over control mice (G93A transgenic mice; 450 PPM in food): 7% | Average survival (G93A transgenic mice; 450 PPM in food from postnatal day 30): 131.17 ± 10.9 days | Scheffe for motor performance, Mean Diff. (G93A transgenic mice; Controls vs Sulindac 300 PPM): −59.443 | Scheffe for motor performance, Mean Diff. (G93A transgenic mice; Controls vs Sulindac 450 PPM): −73.119 | Scheffe for motor performance, Mean Diff. (G93A transgenic mice; Sulindac 300 PPM vs Sulindac 450 PPM): −13.676 | Counts of motor neurons in spinal cord sections (G93A transgenic mice; vs G93A controls): significantly higher counts of motor neurons | Units of activity (fSMsr): 0 nmoles of SS formed per hour | Substrate for MsrA (reduction products on TLC) (MsrA [7]): substrate for MsrA | Units of activity (MsrA1): <0.9 nmoles of SS formed per hour | Units of activity (fRMsr): 0 nmoles of SS formed per hour

— patent US8871971B2, “Protection of normal cells” (priority 2002, dated 2014)
